Test results from US20210046106A1, “METHODS OF TREATING CANCER WITH ANDROGEN DEPRIVATION THERAPY IN COMBINATION WITH AN INHIBITOR OF THE SP1 TRANSCRIPTION FACTOR” (The Board of Trustees of the Leland Stanford Junior …, priority 2019, published 2021).

Legend:
PSA = assay: Phase 1 trial: PSA in the subset of patients with prostate cancer; type: in vivo, human
Text: There was no evidence of a selenite dose response relationship, but patient numbers were too small and the patients too heterogeneous to draw a definitive conclusion about the presence or absence of a dose response relationship. Of note, patients were maintained on whatever ADT they were on before study entry, as discontinuation of ADT could have been even more of a confounding variable.

[1] = Phase 1 trial: Brief Pain Inventory; type: in vivo, human; details: 10 point scale
Experimental: They also completed another pain inventory.
The pain inventory captured four categories of pain as follows: worst pain in last 24 hours, least pain in last 24 ours, average pain and pain right now. Pain was scored using a 10 point scale, on which 0 was no pain and 10 was severe pain. […] A change of at least one point was felt to be clinically meaningful.

[2] = system: tumor in irradiated field; assay: Phase 1 trial: tumor response in irradiated field (imaging); type: in vivo, human; parameters: key: CR resolution of uptake; PR decrease in extent of involvement (# and size of lesion ≥ 50% observed); SD same extent of involvement (# and size of lesions)
Text: All but one patient received palliative radiation therapy to symptomatic bone metastases. Quantitation of response in bone is difficult and imprecise. Furthermore, patients were imaged as per standard of care, using a variety of imaging modalities, including bone scan, which is not applicable to RECIST scoring. […] There was no apparent dose response relationship.

[3] = SECAR study, cited from earlier work
[4] = system: breast and ovarian cancer cell lines; details: 2 mg/kg, subcutaneous injection; cited from earlier work
GI epithelium = assay: Preclinical: radiosensitization of normal GI epithelium; details: preclinical studies
prostate cancer tumors = assay: Preclinical: growth of well-established prostate cancer tumors in mice; details: i.p. and p.o.
[5] = Phase 1 trial: population PK model (NONMEM, 1-compartment, oral absorption) and simulations; details: human, in vivo
[6] = 5.5 mg cohort (N=3), First follow-up
[7] = 11 mg cohort (N=3), First follow-up
[8] = 16.5 mg cohort (N=3), End of RT
[9] = 16.5 mg cohort (N=3), First follow-up
[10] = 33 mg cohort (N=5), First follow-up
[11] = 49.5 mg cohort (N=1), End of RT
[12] = 49.5 mg cohort (N=1), First follow-up

O=[Se](O)O [sodium selenite, Sodium selenite pentahydrate]
PSA % Change (PSA; patient 2, 5.5 mg cohort, FU visit 2 M vs Day 1): −77.9% | PSA Value FU (PSA; patient 2, 5.5 mg cohort, FU visit 2 M, Day 1 PSA 39.83): 8.79 ng/mL | PSA % Change (PSA; patient 3, 5.5 mg cohort, FU visit 2.25 M vs Day 1): 6.2% | PSA Value FU (PSA; patient 3, 5.5 mg cohort, FU visit 2.25 M, Day 1 PSA 225): 239 ng/mL | PSA % Change (PSA; patient 4, 11 mg cohort, FU visit 3.25 M vs Day 1): −72.9% | PSA Value FU (PSA; patient 4, 11 mg cohort, FU visit 3.25 M, Day 1 PSA 131.83): 35.77 ng/mL | PSA % Change (PSA; patient 5, 11 mg cohort, FU visit 4 M vs Day 1): −52.6% | PSA Value FU (PSA; patient 5, 11 mg cohort, FU visit 4 M, Day 1 PSA 40.61): 19.25 ng/mL | PSA % Change (PSA; patient 6, 11 mg cohort, FU visit 4 M vs Day 1): −67.3% | PSA Value FU (PSA; patient 6, 11 mg cohort, FU visit 4 M, Day 1 PSA 0.98): 0.32 ng/mL | PSA % Change (PSA; patient 7, 16.5 mg cohort, FU visit 2.25 M vs Day 1): 1155.7% | PSA Value FU (PSA; patient 7, 16.5 mg cohort, FU visit 2.25 M, Day 1 PSA 1.74): 21.85 ng/mL | PSA % Change (PSA; patient 8, 16.5 mg cohort, FU visit 2.75 M vs Day 1): −59.4% | PSA Value FU (PSA; patient 8, 16.5 mg cohort, FU visit 2.75 M, Day 1 PSA 3.3): 1.34 ng/mL | PSA % Change (PSA; patient 9, 16.5 mg cohort, FU visit 3.25 M vs Day 1): −11% | PSA Value FU (PSA; patient 9, 16.5 mg cohort, FU visit 3.25 M, Day 1 PSA 1): 0.89 ng/mL | PSA % Change (PSA; patient 10, 33 mg cohort, FU visit 3 M vs Day 1): −67.1% | PSA Value FU (PSA; patient 10, 33 mg cohort, FU visit 3 M, Day 1 PSA 196): 64.46 ng/mL | decrease in PSA, range (PSA; the seven of nine prostate cancer patients with a decrease, first follow up 2-4 months after RT): 11-78% | Average Pain, average change from baseline, Mean ± SD ([1]; 5.5 mg cohort (N=3), End of RT): −2.5 ± 0.7 | Least Pain Last 24 Hrs, average change from baseline, Mean ± SD ([1]; 5.5 mg cohort (N=3), End of RT): −1.5 ± 2.1 | Pain Right Now, average change from baseline, Mean ± SD ([1]; 5.5 mg cohort (N=3), End of RT): −2 ± 0 | Worst Pain Last 24 Hrs, average change from baseline, Mean ± SD ([1]; 5.5 mg cohort (N=3), End of RT): −4 ± 1.4 | Average Pain, average change from baseline, Mean ± SD [1, 6]: −1.5 ± 0.7 | Least Pain Last 24 Hrs, average change from baseline, Mean ± SD [1, 6]: −1.5 ± 1.4 | Pain Right Now, average change from baseline, Mean ± SD [1, 6]: −2 ± 0 | Worst Pain Last 24 Hrs, average change from baseline, Mean ± SD [1, 6]: −2.5 ± 0.7 | Average Pain, average change from baseline, Mean ± SD ([1]; 11 mg cohort (N=3), End of RT): −2.3 ± 4.0 | Least Pain Last 24 Hrs, average change from baseline, Mean ± SD ([1]; 11 mg cohort (N=3), End of RT): −2.7 ± 3.8 | Pain Right Now, average change from baseline, Mean ± SD ([1]; 11 mg cohort (N=3), End of RT): 1.7 ± 2.9 | Worst Pain Last 24 Hrs, average change from baseline, Mean ± SD ([1]; 11 mg cohort (N=3), End of RT): −1.7 ± 1.5 | Average Pain, average change from baseline, Mean ± SD [1, 7]: −0.7 ± 4.6 | Least Pain Last 24 Hrs, average change from baseline, Mean ± SD [1, 7]: −1.3 ± 4.9 | Pain Right Now, average change from baseline, Mean ± SD [1, 7]: 1.7 ± 1.2 | Worst Pain Last 24 Hrs, average change from baseline, Mean ± SD [1, 7]: −0.7 ± 5.0 | Average Pain, average change from baseline, Mean ± SD [1, 8]: −1.5 ± 3.5 | Least Pain Last 24 Hrs, average change from baseline, Mean ± SD [1, 8]: −1 ± 2.8 | Pain Right Now, average change from baseline, Mean ± SD [1, 8]: −0.5 ± 2.1 | Worst Pain Last 24 Hrs, average change from baseline, Mean ± SD [1, 8]: −1 ± 1.4 | Average Pain, average change from baseline, Mean ± SD [1, 9]: −2 ± 2 | Least Pain Last 24 Hrs, average change from baseline, Mean ± SD [1, 9]: −2.3 ± 2.1 | Pain Right Now, average change from baseline, Mean ± SD [1, 9]: −2.7 ± 3.8 | Worst Pain Last 24 Hrs, average change from baseline, Mean ± SD [1, 9]: −0.7 ± 0.6 | Average Pain, average change from baseline, Mean ± SD ([1]; 33 mg cohort (N=5), End of RT): −1.2 ± 1.3 | Least Pain Last 24 Hrs, average change from baseline, Mean ± SD ([1]; 33 mg cohort (N=5), End of RT): −0.2 ± 0.5 | Pain Right Now, average change from baseline, Mean ± SD ([1]; 33 mg cohort (N=5), End of RT): −0.6 ± 1.1 | Worst Pain Last 24 Hrs, average change from baseline, Mean ± SD ([1]; 33 mg cohort (N=5), End of RT): −1 ± 2 | Average Pain, average change from baseline, Mean ± SD [1, 10]: −1 ± 1 | Least Pain Last 24 Hrs, average change from baseline, Mean ± SD [1, 10]: 0 ± 1 | Pain Right Now, average change from baseline, Mean ± SD [1, 10]: −0.8 ± 1.3 | Worst Pain Last 24 Hrs, average change from baseline, Mean ± SD [1, 10]: −2 ± 2 | Average Pain, average change from baseline, Mean ± SD [1, 11]: −4.5 ± 0 | Least Pain Last 24 Hrs, average change from baseline, Mean ± SD [1, 11]: −5 ± 0 | Pain Right Now, average change from baseline, Mean ± SD [1, 11]: −4 ± 0 | Worst Pain Last 24 Hrs, average change from baseline, Mean ± SD [1, 11]: −6 ± 0 | Average Pain, average change from baseline, Mean ± SD [1, 12]: −8.5 ± 0 | Least Pain Last 24 Hrs, average change from baseline, Mean ± SD [1, 12]: −9 ± 0 | Pain Right Now, average change from baseline, Mean ± SD [1, 12]: −8 ± 0 | Worst Pain Last 24 Hrs, average change from baseline, Mean ± SD [1, 12]: −10 ± 0 | Tumor Response in Irradiated Field ([2]; patient 2 (prostate, 5.5 mg), Field 1, bone, BS 2 mo.): CR | Tumor Response in Irradiated Field ([2]; patient 2 (prostate, 5.5 mg), Field 2, bone, BS 2 mo.): PR (PR decrease in extent of involvement (# and size of lesion ≥ 50% observed)) | Tumor Response in Irradiated Field ([2]; patient 3 (prostate, 5.5 mg), bone, BS 1 mo.): SD | Tumor Response in Irradiated Field ([2]; patient 4 (prostate, 11 mg), bone, BS 1 mo.): CR | Tumor Response in Irradiated Field ([2]; patient 5 (prostate, 11 mg), bone, BS 3 mo., ↓ intensity of uptake): SD ( ↓ Intensity of uptake) | Tumor Response in Irradiated Field ([2]; patient 6 (prostate, 11 mg), bone, BS 5 mo., change from diffuse to patch involvement): PR (Change from diffuse to patch involvement (PR decrease in extent of involvement (# and size of lesion ≥ 50% observed)) | Tumor Response in Irradiated Field ([2]; patient 7 (prostate, 16.5 mg), bone, BS 1 mo., ↓ intensity of uptake): SD (↓ intensity of uptake) | Tumor Response in Irradiated Field ([2]; patient 8 (prostate, 16.5 mg), bone, MRI 2 mo.): SD | Tumor Response in Irradiated Field ([2]; patient 9 (prostate, 16.5 mg), bone, CT and MRI 3 mo.): SD | Tumor Response in Irradiated Field ([2]; patient 10 (prostate, 33 mg), Field 1, bone, CT 4 mo.): PD (PD ≥ 20% ↑ sum of diameters) | Tumor Response in Irradiated Field ([2]; patient 10 (prostate, 33 mg), Field 2, bone, CT 4 mo.): SD | Tumor Response in Irradiated Field ([2]; patient 11 (multiple myeloma, 33 mg), bone, PET-CT 6 mo., almost complete metabolic resolution): PR (almost complete metabolic resolution) (PR ≥ 30% ↓ sum of diameters) | Tumor Response in Irradiated Field ([2]; patient 12 (MPNST, 33 mg), lymph node, CT 1 mo.): SD | Tumor Response in Irradiated Field ([2]; patient 13 (NSCLC, 33 mg), bone, CT, MRI and PET-CT 1 mo.): PD (PD ≥ 20% ↑ sum of diameters) | Tumor Response in Irradiated Field ([2]; patient 15 (NSCLC, 49.5 mg), bone, BS 2 mo.): SD | MTD ([3]; i.v. daily for 5 consecutive days for 2 or 4 weeks, 34 patients): 10.2 mg/m^2 | most common side effects ([3]; i.v.): fatigue, nausea and cramps in fingers and legs | effects on the host [4]: without apparent ill effects on the host | sensitization of GI epithelium to radiation (GI epithelium): did not sensitize GI epithelium to radiation | toxicity at the growth-inhibiting doses (prostate cancer tumors): no detectable toxicity | Tmax ([5]; both): 4.05 h | AUC ([5]; both, 1100 mcg): 6160 ng·h/mL | Cmax ([5]; both, 1100 mcg): 301 ng/mL | AUC ([5]; both, 5500 mcg): 3630 ng·h/mL | Cmax ([5]; both, 5500 mcg): 215 ng/mL | Tmax ([5]; both, 5500 mcg): 3.65 h | AUC ([5]; both, 16500 mcg): 8280 ng·h/mL | Cmax ([5]; both, 16500 mcg): 366 ng/mL | Tmax ([5]; both, 16500 mcg): 4.15 h | AUC ([5]; both, 33000 mcg): 13300 ng·h/mL | Cmax ([5]; both, 33000 mcg): 496 ng/mL | Tmax ([5]; both, 33000 mcg): 4.35 h | AUC ([5]; both, 49500 mcg): 17000 ng·h/mL | Cmax ([5]; both, 49500 mcg): 593 ng/mL | Tmax ([5]; both, 49500 mcg): 4.4 h | half-life ([5]; half-life, simple formulation used in phase 1 trial): ~19 h | AUC ([5]; po, 5.5 mg): 3700 ng·h/mL | Cmax ([5]; po, 5.5 mg): 214 ng/mL | AUC ([5]; po, 11 mg): 6250 ng·h/mL | Cmax ([5]; po, 11 mg): 301 ng/mL | AUC ([5]; po, 16.5 mg): 8360 ng·h/mL | Cmax ([5]; po, 16.5 mg): 366 ng/mL | AUC ([5]; po, 33 mg): 13300 ng·h/mL | Cmax ([5]; po, 33 mg): 497 ng/mL | AUC ([5]; po, 49.5 mg): 16900 ng·h/mL | Cmax ([5]; po, 49.5 mg): 595 ng/mL | half-life ([5]; po, half-life calculated from population PK model, patients with metastatic cancer): ~18.5 h
